We go through six compounds from patent US9381169B2, “Pharmaceutical composition and use of the pharmaceutical composition for the treatment, prophylaxis or prevention of neoplastic diseases in humans and animals” (UNIVERSIDADE BANDEIRANTE DE SÃO PAULO—ACADEMIA PAULISTA …, priority 2009, dated 2016).

Each structure is given as a SMILES string. Read-outs that look alike come from different tables or passages of the source.

In data set [1] the test system is polychromatic erythrocytes. The settings on record: Wistar rats; for Observed frequencies of polychromatic erythrocytes with micronuclei in 1000 polychromatic erythrocytes: single intraperitoneal dose, cyclophosphamide 190 μM/Kg, DM-1 8 hours before cyclophosphamide. The source says: We used animals of the Wistar strain, males and females, with approximately 90 days old and weighing between 250 and 300 grams, maintained with water and food “ad libitum” and in accordance with the rules and procedures regarding the use of laboratory animals. The animals were divided into four groups:
Negative control group—6 animals treated with a single dose of 0.7% saline solution.
Group treated with cyclophosphamide (positive control)—6 animals treated with a single dose of cyclophosphamide chemotherapy.
In all tests was administered 1 mL of the compound of interest intraperitoneally. […] Cyclophosphamide was administered at a concentration of 190 μM/Kg. The compounds were administered separately. At the end of the experiment (24 and 48 hours), animals were euthanized by deep general anesthesia induced by a lethal dose of sodium tiopentabarbital (CRMV, 2008).
This study allowed us to analyze the action of mutagenic compounds under study. Mutagenic compounds when administered in experimental animals cause changes in chromatin that can be identified by the formation of a mass within the nucleus called the micronucleus. The emergence of this mass is quantified and analyzed for their proportion to the capacity of a given drug or not to be mutagenic.
For micronucleus study we used the technique reported by Ribeiro et al. (Environmental Mutagenesis. Ulbra Publisher. Canoas: 1st edition, 2003.) For the staining of slides was used the technique described by Rabello-Gay et al. Apud SILVA, J. C. of; SILVA, S. of C. Evaluation of possible genotoxic effects of Gergilim (Sesamum indicum L., 2003).
In the test, the effect of the chemical agent is observed in anucleate polychromatic erythrocytes (ECPs), which have relatively short life span, so that it contains any micronucleus that was generated as a result of recent chromosomal damage. For the staining of slides was used Giemsa stain diluted in phosphate buffer at pH 6.8, in the ratio 1:10, for a period of 15 minutes. After staining, the slides were washed in distilled water to remove excess dye. To read the slides used an optical microscope and perform counting and analysis of 1000 polychromatic erythrocytes per slide, considering the frequency of micronucleated polychromatic erythrocytes.
The analysis was performed with cells increases 40× and 100× for the visualization of general morphology of the smears negative control group (FIG. 22), the groups treated with the compound DM1 and their polychromatic erythrocytes (FIGS. 23, 24 and 25). 1000 cells were analyzed per animal for the groups treated with DM1, negative control and cyclophosphamide for a total of 40,000 cells. The photodocumentation polychromatic erythrocytes was obtained by digital AVsoft. The group treated with cyclophosphamide was the positive control of the technique (FIG. 27).
The results were subjected to statistical analysis, the ANOVA test of variance followed by Tukey-Kramer multiple comparisons (parametric data) and the significance level of 5%, i.e., the probability P<0.05).

In data set [2] the test system is B16F10 melanoma. Briefly: Internal metastases, B16F10 melanoma. In kind it is in vivo, mice. The method, then:
(§1) Groups of mice of the C57Bl/6J strain were injected subcutaneously dorsally with 5×10^4 B16F10 melanoma tumor cells under sterile conditions. The animals were observed every 72 hours and tumor growth monitored until the average diameter of […].
(§2) Paclitaxel-treated group—10 animals with B16F10 melanoma tumor, which after the 11th day of tumor implantation, received intraperitoneal doses of paclitaxel chemotherapy in […] of treatment;
Group pre-treated with the DM-1 compound prior to the implant of B16F10 melanoma cells—10 animals were treated with daily doses of the compound DM-1 for 14 days before implantation of tumor cells. After 14 days, the animals received implantation of B16F10 melanoma cells and received no treatment until the end of the experiment.
Group pre-treated with the DM-1 compound prior to the implant of B16F10 melanoma cells and post-treated with DM-1 compound—10 animals were treated with daily doses of the compound DM-1 for 14 days before implantation of tumor cells. After 14 days, the animals received implantation of B16F10 melanoma cells and continued to receive daily treatment with the compound DM-1 for another 14 days.
(§3) The compounds were administered separately.

Data set [3] deals with Ehrlich tumor. As to the kind of experiment: Macroscopic spleen volume, Ehrlich tumor. The settings on record: all experimental protocols with DM-1.
Method: (§6) We used 50 mice of the Balb-c strain, females and males, with approximately 25 g, aged approximately 6 to 8 weeks, with diet and water ad libitum, that were divided into 5 groups:
The spleens of animals from all experimental groups were analyzed for the display of nodes and metastases.
The subject of data set [4] is B16F10 melanoma cells. As to the kind of experiment: Cell cycle phases and apoptosis of dorsal tumor cells (propidium iodide, FACSCalibur). In kind it is in vivo, mice. The method, then: The cells were then frozen and kept in liquid nitrogen. After incubation with propidium iodide, the analysis was performed on a FACSCalibur cytometer. The results were expressed as mean percentage of cells in different phases of the cell cycle, debris and necrosis, apoptosis (sub-G1), quiescent non-proliferating cells G0/G1, S phase—synthesis of genetic material and G2/M at the beginning of cell division.

Data set [5] deals with B16F10 melanoma. As to the kind of experiment: Survival rate, B16F10 melanoma. In kind it is in vivo, mice. The method, then:
as §1, §2
(§4) After 14 days, the animals received implantation of B16F10 melanoma cells and received no treatment until the end of the experiment.
(§5) Paclitaxel was administered at a concentration of 15 μM/Kg, via intraperitoneal slow infusion, the treatment regimens described in the literature on days 1, 5 and 10, after the 7th day of tumor implantation. The compounds were administered separately.

Data set [6] in a line: Hematologic evaluation (erythrocytes, leukocytes, platelets), B16F10 melanoma. In kind it is in vivo, mice. The settings on record: for platelet counts during treatment compared to the control group: B16F10 melanoma mice. The method, then:
as §3
The blood of animals with B16F10 melanoma tumor was harvested in the 6th and 14th day during treatment with the compound DM-1 and prior to the inoculation of B16F10 cells. In the charts, collections for the day 6 were named 1A, while those relating to day 14 were named 2A. After implantation, tumor blood were collected in the second, sixth and tenth days of treatment (after treatment with DM-1) in all groups of animals, and these collections were named 1B and 2B and 3B, respectively.

Data set [7] concerns tumor cell lines. The settings on record: PCT/BR2007/000175 and PI0602640-0; cited from earlier work.
Data set [8] relates to B16F10 melanoma. As to the kind of experiment: Tumor growth (dorsal tumor area), B16F10 melanoma. In kind it is in vivo. The settings on record: C57Bl/6J mice. The method, then:
as §1
Control group—10 animals with B16F10 melanoma tumor, which after the 11th day of tumor implantation, received daily intraperitoneal doses of saline 0.9%;
as §2, §4, §5

For data set [9] the following is noted: cited from earlier work.
In data set [10] the test system is Ehrlich tumor. The settings on record: Balb-c mice, intraperitoneal from day 7 after implant, DM-1 1.6 nM/kg daily, paclitaxel 15 μM/Kg, etoposide 3.73 mM/kg on days 1, 5, 10.
From the text: as §6
CONTROL GROUP—10 animals implanted with tumor, which after 7 days of application, received daily intraperitoneal doses of saline 0.9%;
Paclitaxel-treated group—10 animals implanted with tumor, which after 7 days of application, received intraperitoneal doses of paclitaxel chemotherapy in the 1st, 5th and 10th days of treatment;
Etoposide-treated group—10 animals implanted with tumor, which after 7 days of application, received intraperitoneal doses of etoposide chemotherapy in the 1st, 5th and 10th days of treatment; […]
Tumor growth in mice was measured by the dimensions on the longitudinal and transverse abdominal cavity, with the aid of a digital caliper. […] The mean area (A), mass (M) and tumor burden (C) were calculated using the following equations, respectively: A=nπ2; L2×T=M/2 (where L is the measured longitudinal and transverse extent of the T waist circumference).
The subject of data set [11] is Ehrlich tumor. Briefly: Number of renal and splenic metastases, Ehrlich tumor. The settings on record: Balb-c mice. In kind it is in vivo. The method, then: As an experimental model of mammary adenocarcinoma, we used the Ehrlich tumor in mice of the Balb-c strain, with approximately 2 months of age and weighing between 20 to 25 grams. The maintenance of the tumor in vivo was performed by intraperitoneal administration of 10^7 cells every seven days.
Paclitaxel and etoposide were administered at concentrations of 15 μM/Kg and 3.73 mM/kg, respectively, by intraperitoneal slow infusion in treatment regimens described in the literature on days 1, 5 and 10, after the 7th day of tumor implantation. The compounds were administered separately.

The mark [12] stands for this setting: group pre and post treated with DM-1.

Consider `O=P1(N(CCCl)CCCl)NCCCO1` (centres unmarked) [Cyclophosphamide, cyclophosphamide], for which, in data set [1] (bone marrow smears), the “cells with micronuclei found in the group” value is “more than 200 cells”. Further, the “Observed frequencies of polychromatic erythrocytes with micronuclei in 1000 polychromatic erythrocytes” value in data set [1] (DM-1 140 μM/Kg, 24 Hours) is given as 36.5 ± 1.0; in data set [1] (DM-1 140 μM/Kg, 48 Hours), 35.5 ± 1.0. For the same compound, in [1] (positive control group), the “frequency of micronucleated polychromatic erythrocytes in 1000 cells” value was 36 /1000.
Turning to `COc1cc(C=CC(=O)C=Cc2ccc(O)c(OC)c2)ccc1[O-].[Na+]` [DM-1, sodium 4-[5-(4-hydroxy-3-methoxy-phenyl)-3-oxo-penta-1,4-dienil]-2-methoxy-phenolate], the “formation of lung and liver metastases” value in data set [2] (setting [12]) and in data set [2] (group pre-treated with DM-1) was “inhibition” in each case. Moreover, in data set [3], the “immunosuppression in animals with Ehrlich ascites tumor” value was “suppressed”. For the same compound, the “percentage of cells in sub-G1 (apoptotic) phase” value in data set [4] (setting [12]) and in [4] (group pre-treated with DM-1) was “increased significantly” each time. In addition, the “proportion of quiescent cells in G0/G1 phase” value in [4] (protocols of treatment with DM-1) is reported as “reduce”. For the same compound, the “increase of survival rate” value came out at 30% in data set [5] (group pre- and post-treated with DM-1); 50% in data set [5] (group pre-treated with DM-1). Moreover, the “platelet counts during treatment compared to the control group” value in [6] was “significant reductions”. In addition, the “erythrocytes (anemia)” value in [6] (mice treated with DM-1) is reported as “does not induce anemia”. For the same compound, in data set [7], the antiproliferative activity entry is on record as “significant”. The “dorsal tumor area, average values” in data set [8] (pre and post treated with DM-1 0.83 nM/kg daily, 14 days before and 14 days after B16F10 implant) is recorded as 7.3±1.3 cm^2; in data set [8] (pretreated with DM-1 0.83 nM/kg daily for 14 days before B16F10 implant, no later treatment), 6.5±1.7 cm^2. Also, the “Observed frequencies of polychromatic erythrocytes with micronuclei in 1000 polychromatic erythrocytes” value in data set [1] (DM-1 140 μM/Kg, 24 Hours) came to 2.4 ± 0.5; in [1] (DM-1 140 μM/Kg, 48 Hours) it was 2.2 ± 0.5. Also, the “micronuclei in bone marrow smears (in words)” value in data set [1] (DM-1 140 μM/Kg, alone or 8 hours before cyclophosphamide 190 μM/Kg) is on record as “not found significant changes”.
`C[C@@H](CN1CC(=O)NC(=O)C1)N1CC(=O)NC(=O)C1` [Dexrazoxane]: the “rates of cell damage” value in data set [9] (as co-adjuvant: dexrazoxane with etoposide, amifostine with cisplatin or paclitaxel) is given as more than 45%.
In the case of `O=S(=O)(O)CCS` [Mesna], the antimutagenic action result in data set [9] (in combination with paclitaxel) is given as “moderate”.
Consider `COc1cc([C@@H]2c3cc4c(cc3[C@@H](O[C@@H]3O[C@@H]5CO[C@@H](C)O[C@H]5[C@H](O)[C@H]3O)[C@H]3COC(=O)[C@H]23)OCO4)cc(OC)c1O` [etoposide], for which the “median values of tumor area” value in data set [10] is on record as 8.6±1.0 cm^2. For the same compound, in [11], the “decrease of metastases in kidney” value was determined as 10% and the “decrease of metastases in spleen” value came out at 30%.
In the case of `CC(=O)O[C@H]1C(=O)[C@@]2(C)[C@H]([C@H](OC(=O)c3ccccc3)[C@]3(O)C[C@H](OC(=O)[C@H](O)[C@@H](NC(=O)c4ccccc4)c4ccccc4)C(C)=C1C3(C)C)[C@]1(OC(C)=O)CO[C@@H]1C[C@@H]2O` [paclitaxel, reference compound], the “proportion of cells killed by necrosis” value in data set [4] (compared to control and DM-1 groups) was “significant increase”. Besides, the “median values of tumor area” value in data set [10] was found to be 11.4±1 cm^2. Besides, the “increase of survival rate” value in data set [5] (treated after tumor implantation) is listed as “no significant changes”. Moreover, in [6], the “platelet counts during treatment compared to the control group” value is reported as “increase”. Further, in data set [11], the “decrease of metastases in kidney” value is reported as 30% and the “decrease of metastases in spleen” value is recorded as 50%. This compound yielded a tumor area in data set [8] (B16F10, treated after tumor implantation, paclitaxel 15 μM/Kg i.p., DM-1 0.83 nM/kg daily) of 9.4 cm^2.
